Data published in patent US7405051B2, “Method of screening antiplatelet agents” (Astellas Pharma Inc., priority 2000, dated 2008).

Tests used:
[1] = molecular target: HORK3 protein (human ADP receptor P2TAC) (Homo sapiens, UniProt Q9H244); experiment: [3H]-2MeSADP binding assay on membrane fraction of C6-15 cell expressing HORK3 protein; conditions: Scatchard analysis
Text: (§1) The C6-15 cells expressing the HORK3 protein prepared in Example 5 were taken and washed, and then suspended in 20 mmol/L Tris-HCl (pH7.4) containing 5 mmol/L EDTA and a protease inhibitor cocktail set (Complete™; manufactured by Boeringer Mannheim). The whole was homogenized by using a POLYTRON, and ultracentrifuged. The pellet was suspended in 50 mmol/L Tris-HCl (pH7.4) containing 1 mmol/L EDTA, 100 mmol/L NaCl, 0.1% BSA, and Complete™ to obtain a membrane fraction.
(§2) After [^3H]-2MeSADP (manufactured by Moravek Biochemical) was added to 20 μg of the membrane fraction as a final concentration of 0.25 to 50 nmol/L, and was incubated in 250 μL of 50 mmol/L Tris-HCl (pH7.4) containing 1 mmol/L EDTA, 100 mmol/L NaCl, 0.1% BSA, and Complete™ at room temperature for 1 hour, the whole was collected on a glass filter by using a cell harvester. A microscintillator was added to the glass filter, and then a total amount of binding to the membrane fraction was measured by using a liquid scintillation counter. Further, an amount of non-specific binding to the membrane fraction was measured by adding 2MeSADP (a final concentration=50 μmol/L) in the above assay.
A microscintillator was added to the glass filter, and then radioactivity was measured by using a liquid scintillation counter. Further, radioactivity was measured by not adding the compound and by adding 2MeSADP (a final concentration=10 μmol/L) in the above assay, as a total amount of binding and an amount of non-specific binding, respectively.

[2] = system: membrane fraction of the host cell C6-15 not expressing the HORK3 protein; experiment: [3H]-2MeSADP binding to membrane fraction of host cell C6-15 not expressing HORK3 protein; parameters: species or system rat
Text: as §1
as §2, with “assay. […] In contrast, such a specific binding was not observed in the membrane fraction of the host cell C6-15 not expressing the HORK3 protein.” for “assay.”

HORK3 protein (human ADP receptor P2TAC), sequence (Q9H244 whole entry): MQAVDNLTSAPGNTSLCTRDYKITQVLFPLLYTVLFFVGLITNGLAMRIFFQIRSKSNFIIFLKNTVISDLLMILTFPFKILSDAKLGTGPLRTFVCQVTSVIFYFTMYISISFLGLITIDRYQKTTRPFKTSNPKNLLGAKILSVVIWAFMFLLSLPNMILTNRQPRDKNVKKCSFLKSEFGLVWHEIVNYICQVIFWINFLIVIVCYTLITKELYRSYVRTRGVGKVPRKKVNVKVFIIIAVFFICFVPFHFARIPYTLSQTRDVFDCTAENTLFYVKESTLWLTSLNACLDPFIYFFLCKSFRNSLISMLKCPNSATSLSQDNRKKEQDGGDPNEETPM

SMILES: CSc1nc(N)c2ncn([C@@H]3O[C@H](COP(=O)(O)OP(=O)(O)O)[C@@H](O)[C@H]3O)c2n1 [[^3H]-2MeSADP, [^3H] 2-methylthio-ADP]
- Kd ([1]; 0.25 to 50 nmol/L, room temperature 1 hour, read-out: dissociation constant Kd of binding to the membrane fraction): 0.27 nM
- maximum binding Bmax ([1]; membrane fraction of C6-15 cell expressing HORK3): 3.7 pmol/mg
- specific binding to the membrane fraction [2]: not observed
